Laboratory results as given in publication PMC7576608, “Mechanisms of telomerase inhibition by oxidized and therapeutic dNTPs” (Nature Communications, 2020).
“And” between values parts separate entries of the source, which are not always exact repeats. Equal entries are not always repeated. Where two headings read alike, the source gives them in different places.

Tests used:
telomerase [1] = biological target: T1, telomerase (Homo sapiens, UniProt O14746); test: Telomerase extension after insertion of modified dNTP (percent of product terminated at each template position); format: biochemical; parameters: made in house; anti-FLAG immunopurification, eluted with 3xFLAG peptide; conditions: for Percent of Total Product: 50 μM each dATP, dTTP and dGTP or 6-thio-dGTP, Mean
Experimental: Direct telomerase assays were conducted with 5 nM ^32P-end labeled primer a and d Primer 3 (AGGGTT)3, b Primer 1 (TTAGGG)3, or c Primer 2 […]. […] Products were separated on denaturing gels. Letters on the y-axis of the graph indicate the template base; P indicates unextended 18-mer primer. Graphs represent percent of product terminated at each template position as a function of total products. Images are representative of, and data are the mean ± s.d. from, three independent experiments. Source data are provided as a Source Date file.
The reactions were started by the addition of 3 μl of immunopurified telomerase eluent, incubated at 37 °C for 1 h, then terminated with 2 μl of […] and heat inactivated at 65 °C for 20 min. An equal volume of loading buffer (94% formamide, 0.1× TBE, 0.1% bromophenol blue, 0.1% xylene cyanol) was added to the reaction eluent. The samples were heat denatured for 10 min at 100 °C and loaded onto a 14% denaturing acrylamide gel (7 M urea, 1× TBE) and electrophoresed for 90 min at constant 38 W. Samples were imaged using a Typhoon phosphorimager (GE Healthcare). Percent primer extension was calculated with ImageQuant TL 8.2 by measuring the intensity of each product band and dividing by the total radioactivity in the lane or total products, as indicated in the figure legends.

telomerase [2] = biological target: T1, telomerase; test: Telomerase repeat processivity IC50: modified dNTP titrated into reactions with all four natural dNTPs; format: biochemical; parameters: made in house; anti-FLAG immunopurification, eluted with 3xFLAG peptide
Summary of the method: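 Immunopurified human telomerase reactions with cellular-relevant levels of all four natural dNTPs plus modified dNTP titrated 0–10,000 μM, 1 h at 37 °C; products resolved on denaturing gels and phosphorimaged. Repeat processivity R1/2 = −ln(2)/slope of ln(100−%LB) vs repeat number; IC50 is concentration halving bulk repeat processivity.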

[3] = 6-thio-dGTP, per replicate N1-N3

T1 sequence (O14746 whole entry): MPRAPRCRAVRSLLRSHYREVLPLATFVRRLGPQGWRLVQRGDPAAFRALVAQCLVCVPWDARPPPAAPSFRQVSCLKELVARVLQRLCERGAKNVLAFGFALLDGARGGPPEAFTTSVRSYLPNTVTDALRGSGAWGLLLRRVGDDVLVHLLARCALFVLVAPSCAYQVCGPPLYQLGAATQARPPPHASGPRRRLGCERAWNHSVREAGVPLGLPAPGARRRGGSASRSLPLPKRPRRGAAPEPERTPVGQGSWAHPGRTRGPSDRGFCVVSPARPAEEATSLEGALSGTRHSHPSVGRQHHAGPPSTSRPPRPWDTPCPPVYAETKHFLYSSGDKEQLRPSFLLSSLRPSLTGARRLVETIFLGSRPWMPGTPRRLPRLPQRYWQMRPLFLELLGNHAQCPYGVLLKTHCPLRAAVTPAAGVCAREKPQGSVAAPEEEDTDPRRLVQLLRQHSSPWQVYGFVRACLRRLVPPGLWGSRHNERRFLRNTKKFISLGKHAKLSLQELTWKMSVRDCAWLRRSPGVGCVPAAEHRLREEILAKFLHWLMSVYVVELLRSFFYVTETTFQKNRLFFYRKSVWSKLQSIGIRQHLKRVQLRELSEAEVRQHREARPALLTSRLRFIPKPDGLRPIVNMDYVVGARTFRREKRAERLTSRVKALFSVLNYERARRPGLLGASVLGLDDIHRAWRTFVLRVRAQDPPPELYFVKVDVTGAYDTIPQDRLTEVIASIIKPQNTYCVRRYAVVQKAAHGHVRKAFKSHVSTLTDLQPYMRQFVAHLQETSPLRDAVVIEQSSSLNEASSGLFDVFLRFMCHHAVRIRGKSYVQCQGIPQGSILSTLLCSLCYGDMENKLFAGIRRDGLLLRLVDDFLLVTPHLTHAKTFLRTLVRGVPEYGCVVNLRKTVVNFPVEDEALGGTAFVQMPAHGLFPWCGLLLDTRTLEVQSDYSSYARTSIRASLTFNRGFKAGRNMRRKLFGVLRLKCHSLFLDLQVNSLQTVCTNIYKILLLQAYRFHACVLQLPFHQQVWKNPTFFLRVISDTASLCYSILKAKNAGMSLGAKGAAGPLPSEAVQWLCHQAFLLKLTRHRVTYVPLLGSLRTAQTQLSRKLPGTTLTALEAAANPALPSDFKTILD

Question: What does the source list for Nc1nc2c(ncn2C2CC(O)C(COP(=O)(O)OP(=O)(O)OP(=O)(O)O)O2)c(=S)[nH]1 (stereo not shown) [6-thio-dGTP]?
Answer: Extension after insertion of the modified dNTP (in words) (telomerase [1]; 50 μM each dNTP, analog substituted for natural dNTP): not a chain terminator; Percent of Total Product (telomerase [1]; Fig 4b, Primer 1 (TTAGGG)3, terminated at rA3): 11.46%; Percent of Total Product (telomerase [1]; Fig 4b, Primer 1, terminated at rA4): 5.50%; Percent of Total Product (telomerase [1]; Fig 4b, Primer 1, terminated at rC1): 37.27%; Percent of Total Product (telomerase [1]; Fig 4b, Primer 1, terminated at rC2): 6.46%; Percent of Total Product (telomerase [1]; Fig 4b, Primer 1, terminated at rC6): 34.87%; Percent of Total Product (telomerase [1]; Fig 4b, Primer 1, terminated at rU5): 3.92%; Percent of Total Product (telomerase [1]; Fig 4c, Primer 2, terminated at rA3): 49.91%; Percent of Total Product (telomerase [1]; Fig 4c, Primer 2, terminated at rA4): 4.12%; Percent of Total Product (telomerase [1]; Fig 4c, Primer 2, terminated at rC1): 23.36%; Percent of Total Product (telomerase [1]; Fig 4c, Primer 2, terminated at rC2): 22.82%; Percent of Total Product (telomerase [1]; Fig 4c, Primer 2, terminated at rC6): 8.70%; Percent of Total Product (telomerase [1]; Fig 4c, Primer 2, terminated at rU5): 0.81%; Percent of Total Product (telomerase [1]; Fig 4d, Primer 3 (AGGGTT)3, terminated at rU5): 4.61%; Percent of Total Product (telomerase [1]; Fig 4d, Primer 3, terminated at rA3): 1.16%; Percent of Total Product (telomerase [1]; Fig 4d, Primer 3, terminated at rC1): 49.66%; Percent of Total Product (telomerase [1]; Fig 4d, Primer 3, terminated at rC2): 7.38%; Percent of Total Product (telomerase [1]; Fig 4d, Primer 3, terminated at rC6): 37.00%; Processivity R 1/2 (telomerase [2]; 6-thio-dGTP 0.625μM): 4.12 and 2.32 and 3.78; YIntercept (line fit of ln(100-%LB) vs # telomere repeats) (telomerase [2]; 6-thio-dGTP 0.625μM): 2.91 and 3.25 and 3.64; ln(100-%LB) (telomerase [2]; 6-thio-dGTP 0.625μM, telomere repeat 1): 3.70 and 3.69 and 3.62; ln(100-%LB) (telomerase [2]; 6-thio-dGTP 0.625μM, telomere repeat 2): 3.11 and 3.16 and 3.05; ln(100-%LB) (telomerase [2]; 6-thio-dGTP 0.625μM, telomere repeat 3): 2.56 and 2.68 and 2.52; ln(100-%LB) (telomerase [2]; 6-thio-dGTP 0.625μM, telomere repeat 4): 2.29 and 2.48 and 2.27; ln(100-%LB) (telomerase [2]; 6-thio-dGTP 0.625μM, telomere repeat 5): 2.03 and 2.29 and 2.05; ln(100-%LB) (telomerase [2]; 6-thio-dGTP 0.625μM, telomere repeat 6): 1.75 and 2.06 and 1.79; ln(100-%LB) (telomerase [2]; 6-thio-dGTP 0.625μM, telomere repeat 7): 1.47 and 1.85 and 1.49; ln(100-%LB) (telomerase [2]; 6-thio-dGTP 0.625μM, telomere repeat 8): 1.23 and 1.67 and 1.26; ln(100-%LB) (telomerase [2]; 6-thio-dGTP 0.625μM, telomere repeat 9): 0.98 and 1.45 and 0.96; ln(100-%LB) (telomerase [2]; 6-thio-dGTP 0.625μM, telomere repeat 10): 0.71 and 1.24 and 0.68; YIntercept (line fit of ln(100-%LB) vs # telomere repeats) (telomerase [2]; 6-thio-dGTP 10μM): 5.12 and 3.95 and 4.44; ln(100-%LB) (telomerase [2]; 6-thio-dGTP 10μM, telomere repeat 1): 3.39 and 3.57 and 3.48; ln(100-%LB) (telomerase [2]; 6-thio-dGTP 10μM, telomere repeat 2): 1.78 and 2.70 and 1.99; ln(100-%LB) (telomerase [2]; 6-thio-dGTP 10μM, telomere repeat 6): 0.15; ln(100-%LB) (telomerase [2]; 6-thio-dGTP 10μM, telomere repeat 7): -0.27; ln(100-%LB) (telomerase [2]; 6-thio-dGTP 10μM, telomere repeat 8): -0.68; ln(100-%LB) (telomerase [2]; 6-thio-dGTP 10μM, telomere repeat 9): -1.63; IC50 (telomerase [2]; 6-thio-dGTP, mean of N1-N3, SD 1.45, read-out: Mean IC50 (processivity R 1/2)): 5.48 µM; Bottom (best-fit, processivity R 1/2 vs log concentration) (telomerase [2]; [3]): 0.3229 and 0.05037 and -0.0895; HillSlope (processivity) (telomerase [2]; [3]): -2.993 and -0.7699 and -0.9281; Span (best-fit, processivity R 1/2 vs log concentration) (telomerase [2]; [3]): 3.504 and 3.529 and 1.482; Top (best-fit, processivity R 1/2 vs log concentration) (telomerase [2]; [3]): 3.827 and 3.579 and 1.393; LogIC50 (processivity) (telomerase [2]; 6-thio-dGTP, per replicate N1-N3, concentration in μM): 0.8984 and 0.6519 and 0.682; IC50 (telomerase [2]; 6-thio-dGTP, per replicate N1-N3, read-out: IC50 (processivity R 1/2)): 4.49 µM and 4.81 µM; IC50 (telomerase [2]; cellular relevant natural dNTPs, modified dNTP titrated 0 to 10,000 μM, based on repeat processivity, mean ± SD, read-out: Telomerase processivity IC50): 5 ± 2 µM; IC50 (telomerase [2]; log of processivity IC50 (concentration in μM), Supplementary Fig 8b, read-out: Log IC50 (converted)): 5.01 µM
